Where two headings read alike, the source gives them in different places. No end group written: not given here.
Key:
[1] = Calcein leakage from fungus-mimic artificial vesicles; conditions: fungus-mimic PC/PE/PI/ergosterol vesicles, 20 μM lipid; peptide/lipid molar ratio 0.05; 100% = 0.03% Triton X-100; three independent experiments
Procedure: The permeability of peptides in calcein-entrapped artificial liposomes was assayed by measuring calcein leakage. The desired mixtures of lipids (PC/PE/PI/ergosterol, 5:4:1:2 and PC/CH/SM, 2:1:1, weight ratio) were dissolved in chloroform at 10 mg/mL, dried in a glass tube under nitrogen, and then lyophilized overnight to remove residual solvent. The dried lipid films were resuspended in 1 mL of dye solution (80 mM calcein, 10 mM HEPES buffer, pH 7.2) at 50 °C and vortexed, followed by freeze-thawing for nine cycles and extrusion with polycarbonate filters (0.2-μm pore-size) using an Avanti Mini-Extruder (Avanti Polar Lipids Inc., Alabaster, AL, USA). Free calcein was removed using PD-10 desalting columns (GE Healthcare Life Science, Seoul, Korea). Calcein-entrapped vesicles of 20 μM lipids were incubated with peptides at concentrations of […], 0.02, 0.05, and 0.1 molar ratio (peptide/lipid) and the fluorescence was assessed at 480 (Ex) and 520 (Em) nm using a microtiter SpectraMax M5 reader (Molecular Devices). Complete (100%) release was achieved by the addition of 0.03% Triton X-100 (v/v).

C. parapsilosis = type: cell-based, C. parapsilosis (CCARM 14016); conditions: 36 h
From the text: (§1) Aspergillus flavus (KCTC 6905), A. fumigatus (KCTC 6145), Fusarium moniliforme (KCTC 6149), F. oxysporum (KCTC 16909), C. albicans (KCTC 7270), C. krusei (CCARM 14017), C. parapsilosis (CCARM 14016), C. tropicalis (KCTC 7221), and T. beigelii (KCTC 7707) were obtained from the Korea Collection for Type Cultures (KCTC) and Culture Collection of Antimicrobial Resistant Microbes (CCARM). Mold and yeast fungi were pre-grown on potato dextrose (PD) and yeast extract peptone dextrose (YPD) agars, respectively.
(§2) Antifungal activity of peptides was performed by microtiter plate assays. Fungal conidia from four-day-old molds were collected using 0.08% Triton X-100 (v/v), and pre-cultivated yeast cells were adjusted to 2 × 10^4 spores/mL in 10 mM sodium phosphate buffer (SP, pH 7.2) or 10 mM 2-(N-morpholino)ethanesulfonic acid (MES) buffer (pH 5.5) supplemented with 20% culture medium, followed by addition to peptide solutions (0.25, 0.5, 1, 1.5, 2, 4, 6, 8, 12, 16, 32, 48, and 64 µM) in 96-well microtiter plates. After incubation for 36 h at 28 °C, the hyphal growth of conidia and the proliferation of yeast cells were observed under a light microscope. All assays were performed in triplicate. The MIC values were defined as the lowest concentration of samples that reduced fungal germination (for mold) or cell proliferation (for yeast) by more than 90% [34].

F. oxysporum = type: cell-based, F. oxysporum (KCTC 16909); conditions: 36 h
From the text: as §1, §2

F. moniliforme = type: cell-based, Fusarium moniliforme (KCTC 6149); conditions: 36 h
From the text: as §1, §2

C. tropicalis [2] = type: cell-based, C. tropicalis (KCTC 7221); conditions: 36 h
From the text: as §1, §2

A. flavus = type: cell-based, Aspergillus flavus (KCTC 6905); conditions: 36 h
From the text: as §1, §2

A. fumigatus = type: cell-based, A. fumigatus (KCTC 6145); conditions: 36 h
From the text: as §1, §2

C. tropicalis [3] = test: C. tropicalis skin infection mouse model; type: in vivo, BALB/C female mice
Procedure: All animal experiments and procedures were performed with the approval of the Institutional Animal Care and Use Committee (IACUC) of Sunchon National University, Korea (SCNU IACUC-2019-10). BALB/C female mice (six weeks old) were obtained from Koatech Co. (Pyongtaek, Gyeonggido, Korea) and divided into three groups (n = 4): control, pseudin-2, and P2-LZ4 groups. The skin on the back of each mouse was shaved 1 h before infection, and the mice were anesthetized by inhalation of 5% (induction) and 2% (maintenance) isoflurane in pure oxygen. Mice were then subjected to subcutaneous infection with 100 µL C. tropicalis (10^7 cells/mL) by injection into the dorsum of each mouse. At 24 h after infection, 100 µL PBS, pseudin-2 (0.1 mg/mL), or P2-LZ4 (0.1 mg/mL) was injected into the same site. At four days after peptide injection, mice were euthanized by CO2 inhalation, and the infected skin tissues were excised, fixed in 4% paraformaldehyde, embedded in paraffin, stained with H&E, and observed by light microscopy.

C. krusei = type: cell-based, C. krusei (CCARM 14017); conditions: 36 h
From the text: as §1, §2

T. beigelii = type: cell-based, T. beigelii (KCTC 7707); conditions: 36 h
From the text: as §1, §2

C. albicans = type: cell-based, C. albicans (KCTC 7270); conditions: 36 h
From the text: as §1, §2

[4] = tested on: Candida albicans, C. krusei, C. tropicalis, and Trichosporon beigelii; test: Antifungal microtiter plate assay (MIC), range over pathogenic yeasts; type: cell-based; conditions: neutral pH; range over four yeasts
Procedure: as §2

GLNALKKVAQGIHEAAKLINNHVQ-NH2 [P2-LZ4]
leakage of calcein [1]: 80.5% | MIC (C. parapsilosis; pH 5.5): > 64 µM | MIC (C. parapsilosis; pH 7.2): 48 µM | MIC (F. oxysporum; pH 5.5): 16 µM | MIC (F. oxysporum; pH 7.2): 2 µM | MIC (F. moniliforme; pH 5.5): 32 (32) µM | MIC (F. moniliforme; pH 7.2): 32 (32) µM | MIC (C. tropicalis [2]; pH 5.5): 1 µM | MIC (C. tropicalis [2]; pH 7.2): 2 µM | MIC (A. flavus; pH 5.5): 16 µM | MIC (A. flavus; pH 7.2): 32 µM | MIC (A. fumigatus; pH 5.5): 16 µM | MIC (A. fumigatus; pH 7.2): 32 µM | histological evaluation of skin tissues (H&E) (C. tropicalis [3]; 100 µL of 0.1 mg/mL peptide s.c. 24 h after infection, tissues taken four days after peptide injection): nearly identical to those of the PBS-treated mice | skin lesions (swelling and redness in the dorsal skin) (C. tropicalis [3]; 100 µL of 0.1 mg/mL peptide s.c. 24 h after s.c. infection, monitored seven days, n = 4): no obvious skin lesions | MIC (C. krusei; pH 5.5): 8 µM | MIC (C. krusei; pH 7.2): 6 µM | MIC (T. beigelii; pH 5.5): 1 µM | MIC (T. beigelii; pH 7.2): 1.5 µM | MIC (C. albicans; pH 5.5): 8 µM | MIC (C. albicans; pH 7.2): 4 µM | MICs against pathogenic yeast cells [4]: 1.5 to 6 µM
